Assay results reported in paper PMC4211885 (PLoS ONE, 2014).
“Also recorded” adds a separate entry of the source.

Experiments:
OA/TAMac receptor [1] = target: T1, OA/TAMac receptor (Macrobrachium rosenbergii, UniProt D9U2B9); assay: Agonist-evoked direct-current (ID) in Xenopus oocytes injected with OA/TAMac cRNA, two-electrode voltage clamp; assay type: cell-based; conditions: for ID response amplitude (mean ± s.d.): 10 µM, 10 second focal application, OA/TAMac and CFTR co-injected, n = 11 oocytes; for EC50: voltage clamped at −60 mV, approximate, estimated graphically from plot, read-out: EC50 of transmitter evoked direct-current (ID), normalized I/Imax; for Spearman rank-order correlation (rS) between rise rate and peak amplitude of evoked ID: all responses of the concentration series of Figure 3C
From the text: We used Xenopus oocytes to express the prawn OA/TAMac receptor by injection of synthetic cRNA. The injection of foreign RNA into Xenopus oocytes typically induces the expression of multiple native chloride and potassium channels. Ligand evoked currents resulting from modulation of these channels have been used extensively in the characterization of heterologously expressed GPCRs. Oocytes are typically voltage clamped at a constant membrane potential around −60 mV and deviations in holding potential are measured. We refer to currents measured in this way as direct-currents (ID) (after) in order to distinguish them from the voltage-evoked transient current (ICl-T) described later.
Both flow rate and pulse duration were precisely controlled and comparisons were made relative to currents within single oocytes.
To characterize the dose dependence of ID, series of single transmitters were applied to different individual oocytes injected with OA/TAMac. Oocytes were voltage clamped at −60 mV and tyramine, (+/−)-octopamine, or dopamine were applied using 30 second perfusion-switched applications (see methods for more details).
Recordings were performed 1–3 days post-injection at room temperature (20–22°C). Currents were recorded under two-electrode voltage clamp using an Axoclamp 900a amplifier (Molecular Devices LLC, CA USA). A digidata 1440a analog to digital converter was used in conjunction with pCLAMP 10 software (Molecular Devices) for data acquisition and to generate voltage commands. For each step protocol or chemical application data were typically sampled at 5 KHz and filtered digitally at 1 KHz. For the duration of each experiment the current was also continuously sampled at 1 kHz using a separate minidigi 1A digitizer (Molecular Devices). Glass microelectrodes were pulled from filamented 1.2 mm thin wall borosilicate glass (World Precision Instruments, Sarasota, FL) using a Sutter Instruments P-97 puller. They were filled with 3 M KCl and had resistances of 0.8–2.0 MΩ. A silver chloride pellet immersed in 3 M KCl and connected to the bath via a 3% agar bridge made with 3 M KCl was used as the reference electrode.
Oocytes were continuously perfused at 1.5 mL/min either with ND 96 or test compounds dissolved in ND 96. Two types of application were used over the course of this study, a perfusion-switch or a focal application. In all cases solutions were delivered through a gravity fed system and switched using a computer controlled bank of pinch valves. Flow rate was regulated with a manual screw-type pinch valve.
For focal application a triple barrel pipette with three parallel independently switched channels was positioned about 1 mm from the surface of the oocyte, up-stream of a cross flow, at an approximate angle of 45 degrees (schematic shown in Fig. S8). Drugs were focally applied during continuous perfusion with ND 96.
In experiments where more than three drugs or concentrations were tested a precisely controlled 30 s perfusion-switch was used. Up to eight channels were connected to the bath via an 8-way manifold. There was an approximately 6–7 s delay for solutions to traverse the dead volume between the manifold and the bath.

OA/TAMac receptor [2] = target: T1, OA/TAMac receptor; assay: Modulation of the transient calcium-dependent chloride current ICl-T in OA/TAMac-injected oocytes (voltage step protocol); assay type: cell-based; conditions: for Effect on ICl-T at lower concentration: 1 µM and 100 µM, 8 minute applications, n = 5 at each concentration; for Effect on ICl-T during prolonged application: 1 mM (high concentration), n = 4 oocytes
From the text: The fluctuations in holding current that we refer to as ID have often been referred to as the calcium-dependent chloride current. These currents are in fact complex and are known to contain multiple poorly defined components that arise from a number of unidentified potassium, chloride and mixed cationic channels, [47]. For this reason, we tested the effect of tyramine and octopamine on one of the better characterized components, the transient calcium-dependent chloride current that we refer to as ICl-T after. This current, which has been referred to as Iout, [54], ICl-2 [55] or ICl1-T [53], can be clearly isolated from ID using a specific pulse protocol (Fig. 6A). Furthermore, ICl-T is known to increase in response to inositol 1,4,5-triphosphate (IP3) injection, [55]. Modulation of this current therefore provides additional insight into how IP3 related pathways might be affected by transmitter application.
Figure 6 Differential modulation of a transient chloride current by tyramine (TA) and octopamine (OA). ICl-T is an endogenous calcium-dependent transient chloride current coupled to extra-celluar calcium influx. It is thought to arise from a single type of channel. […] (A) The voltage command protocol used to measure ICl-T is shown with an example current. The first step to +40 mV from the holding potential of −20 mV evokes no ICl-T and provides the baseline. The hyperpolarizing step to −140 mV induces calcium influx that causes ICl-T to appear during the second step to +40 mV [53]. The amplitude of ICl-T was measured as the difference between the first step and the peak of the transient current evoked by the second. (B) Measurements of ICl-T were taken every minute during the ID evoked by long applications of 1 mM TA and 1 mM OA. The vertical lines are the currents evoked by the voltage command pulse used to measure ICl-T (as shown in A). Their true amplitude was clipped from the image during figure preparation. Below the trace individual ICl-T transients are shown. Δ ICl-T is the difference in amplitude of these transients measured at different time points. The amplitude of ICl-T increases during continuous TA application and decreases during continuous OA application. There was a 38 minute washout period between the TA and OA applications. […]
ICl-T was measured under two-electrode voltage-clamp by hyperpolarizing the oocyte to −140 mV after a step to +40 mV and stepping back to +40 mV (Fig. 6A). […] ICl-T is measured instead of Icat because ICl-T is a pure chloride conductance that likely arises from one ion channel population while Icat is complex arising from more than one conductance.
We monitored ICl-T over the course of extended transmitter applications using the described pulse protocol. […]

[3] = 30 second perfusion-switched applications, −60 mV

T1 sequence (D9U2B9 entry or part of it): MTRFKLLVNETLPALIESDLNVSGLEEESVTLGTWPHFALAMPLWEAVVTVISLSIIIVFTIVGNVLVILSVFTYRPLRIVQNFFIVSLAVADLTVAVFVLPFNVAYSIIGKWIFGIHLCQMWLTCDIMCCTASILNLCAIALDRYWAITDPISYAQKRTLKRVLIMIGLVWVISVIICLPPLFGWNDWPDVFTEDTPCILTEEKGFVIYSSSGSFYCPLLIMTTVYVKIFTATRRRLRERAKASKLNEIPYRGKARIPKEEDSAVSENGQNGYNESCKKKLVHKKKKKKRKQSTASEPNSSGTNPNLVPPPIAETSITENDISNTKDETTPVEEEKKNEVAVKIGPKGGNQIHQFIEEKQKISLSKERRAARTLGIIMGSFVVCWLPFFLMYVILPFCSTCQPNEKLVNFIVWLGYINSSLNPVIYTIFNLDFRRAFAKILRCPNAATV

ID response amplitude (mean ± s.d.) (OA/TAMac receptor [1]; −60 mV) [nA] | Mean ID response amplitude in the agonist set (OA/TAMac receptor [1]; 50 µM, 30 second perfusion-switch, n = 6, standard deviation 32 nA) [nA] | EC50 (OA/TAMac receptor [1]; 30 second perfusion-switch) [µM] | Concentration at which evoked inward currents became visible/apparent (OA/TAMac receptor [1]; [3]) | Spearman rank-order correlation (rS) between rise rate and peak amplitude of evoked ID (OA/TAMac receptor [1]) | Effect on ICl-T at lower concentration (OA/TAMac receptor [2]) | Concentration at which the response reached maximum amplitude (OA/TAMac receptor [1]; [3]) | SMILES | Effect on ICl-T during prolonged application (OA/TAMac receptor [2])
75±55 | 119 | ~21 | around 1 µM | 0.93 | no apparent effect | – | NCC(O)c1ccc(O)cc1 (racemic) [octopamine, (+/−)-octopamine] | reversibly decreases; also recorded: decreased
229±152 | – | ~0.2 | around 0.1 µM | 0.52 | increase | around 10 µM | NCCc1ccc(O)cc1 [tyramine] | reversibly increases; also recorded: increased
